Assay results published in patent publication US9409905B2, “Antibacterial compounds and methods for use” (PTC THERAPEUTICS, INC., priority 2011, dated 2016).
Values after ≈ are worked out from the molar mass of the structure shown.

Assays:
[1] = tested on: Escherichia coli (E. coli) BAS849; experiment: Antibacterial activity, microbroth dilution MIC (Table 1); type: cell-based; conditions: microbroth dilution, super sensitive Gram-negative E. coli BAS849, read-out: MIC, BAS849
Outline: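 Each strain is exposed to test compound in a microbroth dilution series; visible growth is scored macroscopically, and the lowest growth-free concentration is recorded as MIC in μg/mL.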

[2] = tested on: Staphylococcus aureus (S. aureus) 29213; experiment: as above; type: cell-based; conditions: microbroth dilution, Gram-positive S. aureus 29213, read-out: MIC, 29213
Outline: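 Using broth microdilution, MIC endpoints (μg/mL) mark where visible growth no longer appears; the panel spans sensitive and control Gram-negative strains plus a Gram-positive strain.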

E. coli 25922 = experiment: as above; type: cell-based, Escherichia coli; conditions: Escherichia coli; microbroth dilution; control Gram-negative E. coli 25922 strain; read-out: MIC, 25922
Outline: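 MIC (μg/mL) read as lowest concentration with no macroscopically visible growth; microbroth dilution format. E. coli 25922 served as control Gram-negative strain.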

E. coli LZ3111 = experiment: Antibacterial activity, MIC, quinolone resistant strain (Table 2); type: cell-based; conditions: Escherichia coli, LZ3111, read-out: MIC LZ3111
Outline: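 Microbroth dilution method; MIC (μg/mL) is the lowest drug concentration preventing macroscopically visible growth under test conditions.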

[3] = tested on: Acinetobacter baumannii (A. baumannii) BAA747; experiment: Antibacterial activity, MIC (Table 4); type: cell-based; conditions: A. baumannii BAA747, read-out: MIC, BAA747
Outline: (§1)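 Activity was measured by microbroth dilution. The MIC, in μg/mL, is the lowest drug concentration that prevents macroscopically visible growth under the test conditions. The resistant strains are multi-drug resistant clinical isolates.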

[4] = tested on: Klebsiella pneumoniae (K. pneumoniae) 35657; experiment: Antibacterial activity, MIC (Table 4); type: cell-based; conditions: K. pneumoniae 35657, read-out: MIC, 35657
Outline: as §1

A. baumannii MXX2240 = experiment: Antibacterial activity, MIC, resistant strain (Table 4); type: cell-based; conditions: Acinetobacter baumannii, MXX2240; resistant A. baumannii MMX2240, multi-drug resistant clinical isolate; read-out: MIC, MMX2240
Outline: as §1

K. pneumoniae MXX1232 = experiment: as above; type: cell-based; conditions: Klebsiella pneumoniae, MXX1232; resistant K. pneumoniae MMX1232, multi-drug resistant clinical isolate; read-out: MIC, MMX1232
Outline: as §1

[5] = tested on: Pseudomonas aeruginosa (P. aeruginosa) 27853; experiment: Antibacterial activity, MIC (Table 5); type: cell-based; conditions: P. aeruginosa 27853, read-out: MIC, 27853
Outline: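 Activity was measured by microbroth dilution. The MIC, in μg/mL, is the lowest drug concentration that prevents macroscopically visible growth under the test conditions.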

Compound | MIC [1] [µg/mL] | MIC [2] [µg/mL] | MIC (E. coli 25922) [µg/mL] | MIC (E. coli LZ3111) [µg/mL] | MIC [3] [µg/mL] | MIC [4] [µg/mL] | MIC (A. baumannii MXX2240) [µg/mL] | MIC (K. pneumoniae MXX1232) [µg/mL] | MIC [5] [µg/mL]
CCc1c(-c2ccc3nn(C)cc3c2)[nH]c(=O)c(C(=O)O)c1O [Cpd 393, 5-ethyl-4-hydroxy-6-(2-methyl-2H-indazol-5-yl)-2-oxo-1,2-dihydropyridine-3-carboxylic acid] | < 1 | 12.5 to 150 (≈ 39.9 to 479 µM) | 3.5 to 12.5 (≈ 11.2 to 39.9 µM) | 3.5 to 12.5 (≈ 11.2 to 39.9 µM) | 3.5 to 12.5 (≈ 11.2 to 39.9 µM) | 12.5 to 150 (≈ 39.9 to 479 µM) | 3.5 to 12.5 (≈ 11.2 to 39.9 µM) | 12.5 to 150 (≈ 39.9 to 479 µM) | 12.5 to 150 (≈ 39.9 to 479 µM)
CCNCc1cc2cc(-c3[nH]c(=O)c(C(=O)O)c(O)c3C)ccc2n1C [Cpd 342, 6-(2-((ethylamino)methyl)-1-methyl-1H-indol-5-yl)-4-hydroxy-5-methyl-2-oxo-1,2-dihydropyridine-3-carboxylic acid] | < 1 | 12.5 to 150 (≈ 35.2 to 422 µM) | 1 to 3.5 (≈ 2.81 to 9.85 µM) | < 1 | 3.5 to 12.5 (≈ 9.85 to 35.2 µM) | < 1 | 1 to 3.5 (≈ 2.81 to 9.85 µM) | 12.5 to 150 (≈ 35.2 to 422 µM) | 12.5 to 150 (≈ 35.2 to 422 µM)
CCc1c(-c2ccc3c(ccn3C)c2OCc2ccccc2)[nH]c(=O)c(C(=O)O)c1O [Cpd 373, 6-(4-(benzyloxy)-1-methyl-1H-indol-5-yl)-5-ethyl-4-hydroxy-2-oxo-1,2-dihydropyridine-3-carboxylic acid] | 3.5 to 12.5 (≈ 8.36 to 29.9 µM) | 1 to 3.5 (≈ 2.39 to 8.36 µM) | 12.5 to 150 (≈ 29.9 to 358 µM) | 12.5 to 150 (≈ 29.9 to 358 µM) | 12.5 to 150 (≈ 29.9 to 358 µM) | 12.5 to 150 (≈ 29.9 to 358 µM) | 12.5 to 150 (≈ 29.9 to 358 µM) | 12.5 to 150 (≈ 29.9 to 358 µM) | 12.5 to 150 (≈ 29.9 to 358 µM)
COCCNCc1cc2cc(-c3[nH]c(=O)c(C(=O)O)c(O)c3C)ccc2n1C [Cpd 341, 4-hydroxy-6-(2-((2-methoxyethylamino)methyl)-1-methyl-1H-indol-5-yl)-5-methyl-2-oxo-1,2-dihydropyridine-3-carboxylic acid] | < 1 | 12.5 to 150 (≈ 32.4 to 389 µM) | 3.5 to 12.5 (≈ 9.08 to 32.4 µM) | < 1 | 3.5 to 12.5 (≈ 9.08 to 32.4 µM) | 3.5 to 12.5 (≈ 9.08 to 32.4 µM) | 1 to 3.5 (≈ 2.59 to 9.08 µM) | 12.5 to 150 (≈ 32.4 to 389 µM) | 12.5 to 150 (≈ 32.4 to 389 µM)
CCc1c(-c2ccc3c(c2)[nH]c2ccccc23)[nH]c(=O)c(C(=O)O)c1O [Cpd 432, 6-(9H-carbazol-2-yl)-5-ethyl-4-hydroxy-2-oxo-1,2-dihydropyridine-3-carboxylic acid] | < 1 | < 1 | 3.5 to 12.5 (≈ 10 to 35.9 µM) | 12.5 to 150 (≈ 35.9 to 431 µM) | 1 to 3.5 (≈ 2.87 to 10 µM) | 3.5 to 12.5 (≈ 10 to 35.9 µM) | 12.5 to 150 (≈ 35.9 to 431 µM) | 12.5 to 150 (≈ 35.9 to 431 µM) | 12.5 to 150 (≈ 35.9 to 431 µM)
CCc1c(-c2ccc3cn[nH]c3c2)[nH]c(=O)c(C(=O)O)c1O [Cpd 391, 5-ethyl-4-hydroxy-6-(1H-indazol-6-yl)-2-oxo-1,2-dihydropyridine-3-carboxylic acid] | 3.5 to 12.5 (≈ 11.7 to 41.8 µM) | 12.5 to 150 (≈ 41.8 to 501 µM) | 12.5 to 150 (≈ 41.8 to 501 µM) | 3.5 to 12.5 (≈ 11.7 to 41.8 µM) | 12.5 to 150 (≈ 41.8 to 501 µM) | 3.5 to 12.5 (≈ 11.7 to 41.8 µM) | 12.5 to 150 (≈ 41.8 to 501 µM) | 12.5 to 150 (≈ 41.8 to 501 µM) | 12.5 to 150 (≈ 41.8 to 501 µM)
CCc1ccc2cc(-c3[nH]c(=O)c(C(=O)O)c(O)c3CC)[nH]c2c1 [Cpd 382, 5-ethyl-6-(6-ethyl-1H-indol-2-yl)-4-hydroxy-2-oxo-1,2-dihydropyridine-3-carboxylic acid] | < 1 | 3.5 to 12.5 (≈ 10.7 to 38.3 µM) | 12.5 to 150 (≈ 38.3 to 460 µM) | 12.5 to 150 (≈ 38.3 to 460 µM) | 12.5 to 150 (≈ 38.3 to 460 µM) | 12.5 to 150 (≈ 38.3 to 460 µM) | 12.5 to 150 (≈ 38.3 to 460 µM) | 12.5 to 150 (≈ 38.3 to 460 µM) | 12.5 to 150 (≈ 38.3 to 460 µM)
